Results from US9237744B2, “Preservative solution for cells, tissues and organs containing rare sugar and preservative method thereof” (NATIONAL UNIVERSITY CORPORATION KAGAWA UNIVERSITY, priority 2004, dated 2016).

Tests used:
ICAM-1 mRNA = experiment: Kidney preservation in UW solution at 4° C., ICAM-1 mRNA by northern blot; set-up: species or system rat; conditions: D-allose 5 mg/ml in UW solution, clearly observed after 12 hours and 24 hours (FIG. 10)
Procedure: (§1) Object: male rats, 200 g to 280 g Preparations of experiment: A rat is fasted 12 hours before the experiment. After the rat is anesthetized by intraperitoneal administration of nenbutal, the stomach is shaved with an electric razor, cleaned with ether, and cut open. The abdominal aorta upper the renal artery is clamped. The UW solution is adapted to be perfused from the abdominal aorta under the renal artery. Grouping: Control group: UW solution only, D-allose group: D-allose is added to the UW solution at a concentration of 5 mg/ml. Experimental method: In the control group and the D-allose group, the kidney is withdrawn after perfusion of the UW solution in each group, put in the UW solution of each of the control group and the D-allose group, and preserved at 4° C. in pre or for 12, 24, 48 or 72 hours. Estimation: Expression of detrimental factor ICAM-1 and regeneration factor EGF in mRNA was examined by northern blot.

CINC-1 = experiment: Renal ischemic reperfusion model, CINC-1 protein amount; format: in vivo, rat; conditions: 400 mg/kg intravenously 30 minutes before renal ischemia, 45 minutes clamp (FIG. 12)
Procedure: Object: male rats with a body weight of 200˜250 g Experimental method: After anesthetization of a rat with nenbutal, a renal ischemic model is prepared. Renal ischemic model: After extraction of the right kidney, the left kidney blood vessel is clamped for 45 minutes. 400 mg/kg of the solution is intravenously administered to the D-allose group 30 minutes before the renal ischemia. A raw feed is administered to the control group. Estimation: Change with time of a CINC-1 protein amount and MPO as an index of accumulation of leukocytes after ischemic reperfusion

HFB (human fibroblast) = experiment: Survival rate of cells after freeze-preservation at −80° C. for 24 hours, trypan blue (Example 1); format: cell-based; conditions: concentration 50 mM (foregoing studies)
Procedure: 1. Cells used: Hela (human cervical cancer), OVCAR-3 (human ovarian cancer), HuH-7 (human liver cancer), HaCaT (human skin keratinocyte), HFB (human fibroblast) and NIH3T3 (mouse fibroblast). Saccharides D-allose and the like were added to culture medium, Cell Banker (commercially available preservative solution) and DMSO at concentrations of 25 mM and 50 mM. Monosaccharides such as D-glucose, D-fructose, D-mannose and D-galactose which are present in nature in large quantities and D-allose, D-psicose, D-altrose, allitol, D-talitol and L-sorbose as rare sugars were used. Further, trehalose as disaccharide was used. The cells were preserved for 24 hours by being frozen at −80° C. 1) Survival rate of cells: One day later, the cells were thawed, and the survival rate was estimated by trypan blue dying method.

EGF mRNA = experiment: Kidney preservation in UW solution at 4° C., EGF mRNA by northern blot; set-up: species or system rat; conditions: D-allose 5 mg/ml in UW solution, in 48 hours and 78 hours (FIG. 11)
Procedure: as §1, with “and preserved at 4° C. in pre or for 12, 24, 48 or 72 hours.” left out

[1] = tested on: NIH3T3, OVCAR-3, HaCaT and HFB cells; experiment: Cell preservation with DMSO plus rare sugar, growth after thawing (Example 1); format: cell-based, human, mouse; conditions: DMSO decreased to 1%, sub-optimal condition (FIG. 4, FIG. 5)
Procedure: 1. Cells used: Hela (human cervical cancer), OVCAR-3 (human ovarian cancer), HuH-7 (human liver cancer), HaCaT (human skin keratinocyte), HFB (human fibroblast) and NIH3T3 (mouse fibroblast). Saccharides D-allose and the like were added to culture medium, Cell Banker (commercially available preservative solution) and DMSO at concentrations of 25 mM and 50 mM. Monosaccharides such as D-glucose, D-fructose, D-mannose and D-galactose which are present in nature in large quantities and D-allose, D-psicose, D-altrose, allitol, D-talitol and L-sorbose as rare sugars were used. Further, trehalose as disaccharide was used. The cells were preserved for 24 hours by being frozen at −80° C. 2) Cell growth: One day later, the cells were thawed, and 0.25˜2×10^4 cells/well were spread on 96-well plate with 0.1 mL medium. After a prescribed period of time, the cell growth was measured by MTT assay. 4) Since DMSO (dimethyl sulfoxide) is also commonly added to culture medium at a rate of 10% and used in freeze-preservation, the effect of rare sugar was examined in the system of DMSO. The difference in effect of rare sugar is hardly observed in a system using 10% DMSO, the effect of cell preservation was comparatively examined under a sub-optimal condition by decreasing the concentration of DMSO to 1%. NIH3T3, OVCAR-3, HaCaT and HFB cells and the like were used. […]

rat kidney = conditions: pre-administration, cited from earlier work
[2] = tested on: OVCAR-3, HaCaT and HDF cells; experiment: Cell survival rate with D-allose combined with DMSO at low concentration (Example 2); format: cell-based, human; conditions: 1 or 2% of DMSO with addition of D-allose (FIG. 9)
Procedure: 1. Cells used: Hela (human cervical cancer), OVCAR-3 (human ovarian cancer), HaCaT (human skin keratinocyte), HFB (human fibroblast) and NIH3T3 (mouse fibroblast). Saccharides D-allose and the like were added to culture medium, Cell Banker (commercially available preservative solution) and DMSO at concentrations of 0.2, 0.4, 0.6, 0.8 and 1M. Monosaccharides such as D-glucose, D-fructose, D-mannose and D-galactose which are present in nature in large quantities and D-allose, D-altrose, D-psicose, L-psicose, D-sorbose, L-sorbose, D-tagatose, L-tagatose and L-fructose as rare sugars were used. Further, trehalose as disaccharide was used. The cells frozen with D-allose were freeze-preserved at −80° C. and in liquid nitrogen for 24 hours, 1 week and 4 weeks. 1) Survival rate of cells: The cells were thawed, and the survival rate was estimated by a trypan blue dying method. 6) The effect of cell preservation under sub-optimal conditions by reducing the concentration of DMSO to 1, 2 or 3% was comparatively examined. OVCAR-3, HaCaT and HDF cells were used as cells. Regarding the preservation effect with DMSO, it was confirmed that the survival rate was approximately 70% or more with the use of 1 or 2% of DMSO by addition of D-allose (FIG. 9).

Compound: O=C[C@H](O)[C@H](O)[C@H](O)[C@H](O)CO [D-allose]
- expression of ICAM-1 mRNA during kidney preservation (ICAM-1 mRNA): reduced
- CINC-1 protein amount after ischemic reperfusion (CINC-1): significantly decreased
- improvement effect as preservative agent (HFB (human fibroblast)): no great improvement effect was obtained
- expression of EGF mRNA during kidney preservation (EGF mRNA): still maintained
- effect of preservation with DMSO [1]: improved
- activation and floating of neutrophils after ischemic reperfusion (rat kidney; rat kidney (WO 03/097820)): inhibits
- functional disorder of the kidney (rat kidney; rat kidney ischemic reperfusion (WO 03/097820)): decreases
- survival rate [2]: ≥ 70%
